# Experimental data taken from the supplement of paper PMC11061612.
# Experiments:
# Assay in all cases: combination Emax (second highest fraction inhibited in the dose matrix, 72 h); higher = more inhibition; extreme values may be limits of the assay
# A172 (Glioblastoma) = tested on: A172 (Glioblastoma)
# Method in brief: (§1)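 Bliss excess equals the observed combination effect minus the expected value EA + EB − EA·EB, where EA and EB are the effects of each agent alone. Combination Emax is the second-highest inhibition within the matrix. Inhibition was scaled from CellTiter-Glo 2.0 luminescence, with 0 set by vehicle wells and 1 by blank wells, after 72 hours of two-drug dosing of cells plated in 1536-well plates.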
# [1] = tested on: D-283MED (Other Solid Carcinomas)
# Method in brief: as §1
# [2] = tested on: YT (Other Blood Carcinomas)
# Method in brief: as §1
# [3] = tested on: EKVX (Non-Small Cell Lung Carcinoma)
# Method in brief: as §1
# [4] = tested on: SNU-61 (Colorectal Carcinoma)
# Method in brief: as §1
# MSTO-211H (Mesothelioma) = tested on: MSTO-211H (Mesothelioma)
# Method in brief: as §1
# [5] = tested on: CAL-39 (Other Solid Carcinomas)
# Method in brief: as §1
# SK-MEL-1 (Melanoma) = tested on: SK-MEL-1 (Melanoma)
# Method in brief: as §1
# [6] = tested on: NCI-H1688 (Small Cell Lung Carcinoma)
# Method in brief: as §1
# [7] = tested on: ETK-1 (Biliary Tract Carcinoma)
# Method in brief: as §1
# [8] = tested on: KG-1 (Acute Myeloid Leukemia)
# Method in brief: as §1
# [9] = tested on: U-118-MG (Low Grade Glioma)
# Method in brief: as §1
# H4 (Low Grade Glioma) = tested on: H4 (Low Grade Glioma)
# Method in brief: as §1
# [10] = tested on: GDM-1 (Acute Myeloid Leukemia)
# Method in brief: as §1
# [11] = tested on: TYK-nu (Ovarian Carcinoma)
# Method in brief: as §1
# [12] = tested on: HLE (Hepatocellular Carcinoma)
# Method in brief: as §1
# HuO9 (Osteosarcoma) = tested on: HuO9 (Osteosarcoma)
# Method in brief: as §1
# [13] = tested on: SLVL (B-Cell Non-Hodgkin's Lymphoma)
# Method in brief: as §1
# [14] = tested on: BICR78 (Oral Cavity Carcinoma)
# Method in brief: as §1
# MCF7 (Breast Carcinoma) = tested on: MCF7 (Breast Carcinoma)
# Method in brief: as §1
SMILES,combination Emax (A172 (Glioblastoma)),combination Emax [1],combination Emax [2],combination Emax [3],combination Emax [4],combination Emax (MSTO-211H (Mesothelioma)),combination Emax [5],combination Emax (SK-MEL-1 (Melanoma)),combination Emax [6],combination Emax [7],combination Emax [8],combination Emax [9],combination Emax (H4 (Low Grade Glioma)),combination Emax [10],combination Emax [11],combination Emax [12],combination Emax (HuO9 (Osteosarcoma)),combination Emax [13],combination Emax [14],combination Emax (MCF7 (Breast Carcinoma))
"CN(CCO)CC[C@H](CSc1ccccc1)Nc1ccc(S(=O)(=O)NC(=O)c2ccc(N3CCC([C@@H](O)c4ccccc4-c4ccc(Cl)cc4)CC3)cc2)cc1S(=O)(=O)C(F)(F)F [AZD4320] + Cc1cc2ncnn2cc1Nc1ncc2c(n1)n(C1CCOCC1)c(=O)n2C [AZD7648] (first compound max 1 µM, 7x7, partner max 10 µM)",0.262,0.923,0.675,0.237,0.107,0.327,0.371,0.606,0.617,0.209,0.966,0.351,0.204,0.982,0.344,0.33,0.77,0.605,0.198,0.367
"CC1(C)CCC(CN2CCN(c3ccc(C(=O)NS(=O)(=O)c4ccc(NCC5CCOCC5)c([N+](=O)[O-])c4)c(Oc4cnc5[nH]ccc5c4)c3)CC2)=C(c2ccc(Cl)cc2)C1 [Venetoclax] + COc1cc(Nc2ncc3c(n2)-c2ccc(Cl)cc2C(c2c(F)cccc2OC)=NC3)ccc1C(=O)O [Alisertib] (first compound max 1 µM, 7x7, partner max 10 µM)",0.595,0.85,0.555,0.646,0.263,0.734,0.704,0.351,0.398,0.453,1,0.527,0.814,0.98,0.521,0.598,0.682,0.932,0.38,0.411
"COc1cccc(OCCCN)c1-c1cc(Nc2cnc(C#N)cn2)n[nH]1 [Prexasertib] + O=C(c1cc(Cc2n[nH]c(=O)c3ccccc23)ccc1F)N1CCN(C(=O)C2CC2)CC1 [Olaparib] (first compound max 1 µM, 7x7, partner max 10 µM)",0.626,0.982,0.966,0.194,0.474,0.806,0.387,0.596,0.528,0.578,1,0.751,0.845,0.91,0.748,0.842,0.878,0.974,0.679,0.429
"Cc1cc2ncnn2cc1Nc1ncc2c(n1)n(C1CCOCC1)c(=O)n2C [AZD7648] + O=C(c1cc(Cc2n[nH]c(=O)c3ccccc23)ccc1F)N1CCN(C(=O)C2CC2)CC1 [Olaparib] (first compound max 10 µM, 7x7, partner max 10 µM)",0.468,0.639,0.575,0.147,0.0443,0.218,0.174,0.24,0.135,0.323,0.131,0.394,0.585,0.628,0.415,0.252,0.441,0.455,0.182,0.29
"C[C@@H]1COCCN1c1cc(C2([S@](C)(=N)=O)CC2)nc(-c2ccnc3[nH]ccc23)n1 [AZD6738] + O=C(c1cc(Cc2n[nH]c(=O)c3ccccc23)ccc1F)N1CCN(C(=O)C2CC2)CC1 [Olaparib] (first compound max 10 µM, 7x7, partner max 10 µM)",0.717,1,0.75,0.32,0.27,0.705,0.526,0.312,0.203,0.678,0.739,0.589,0.791,0.624,0.665,0.981,0.857,0.834,0.615,0.573
"CCN(CCO)CCCOc1ccc2c(Nc3cc(CC(=O)Nc4cccc(F)c4)[nH]n3)ncnc2c1 [AZD2811] + C=CCn1c(=O)c2cnc(Nc3ccc(N4CCN(C)CC4)cc3)nc2n1-c1cccc(C(C)(C)O)n1 [AZD1775] (first compound max 1 µM, partner max 1 µM)",0.603,1,0.888,0.17,0.212,0.618,0.415,0.353,0.568,0.479,0.436,0.333,0.782,0.857,0.708,0.935,0.686,0.889,0.264,0.303
